# From ChEMBL document CHEMBL2218064, “Structure-activity relationship data for chemical series of antagonists of the P2X7 receptor (Supplementary Bioactivity Data for publication CHEMBL1157114)”
# Target: T1, P2X purinoceptor 7 (Homo sapiens, UniProt Q99572)
# T1 sequence (Q99572 whole entry): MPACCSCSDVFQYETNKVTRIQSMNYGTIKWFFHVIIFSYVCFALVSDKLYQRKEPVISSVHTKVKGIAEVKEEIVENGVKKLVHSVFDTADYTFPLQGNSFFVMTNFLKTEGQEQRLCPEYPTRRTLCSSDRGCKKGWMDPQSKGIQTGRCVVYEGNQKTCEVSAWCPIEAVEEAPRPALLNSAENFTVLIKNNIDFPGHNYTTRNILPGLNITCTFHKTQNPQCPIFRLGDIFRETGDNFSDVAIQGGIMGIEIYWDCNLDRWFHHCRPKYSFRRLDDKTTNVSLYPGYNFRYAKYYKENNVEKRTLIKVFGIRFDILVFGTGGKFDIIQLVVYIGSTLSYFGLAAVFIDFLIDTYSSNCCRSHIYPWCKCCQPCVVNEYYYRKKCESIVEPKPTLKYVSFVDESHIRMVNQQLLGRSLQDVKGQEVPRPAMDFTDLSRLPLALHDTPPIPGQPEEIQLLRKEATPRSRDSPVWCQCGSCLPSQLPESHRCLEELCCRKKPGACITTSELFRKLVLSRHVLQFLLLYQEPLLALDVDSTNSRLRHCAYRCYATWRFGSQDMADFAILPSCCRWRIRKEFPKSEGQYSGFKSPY
# Test: SUPPLEMENTARY: Inhibition of human P2X7 receptor assessed as inhibition of ethidium bromide accumulation. Same assay as CHEMBL1103860
row,IC50 [nM],SMILES
1,63.1,Cc1cccc(C)c1CNC(=O)Cc1c(C)nn(-c2ccccc2)c1C
2,251,Cc1c(CC(=O)NCc2ccc(F)cc2Cl)cnn1-c1ccc(F)cc1
3,501,Cc1nn(-c2ncccc2C(F)(F)F)c(C)c1CC(=O)NCc1ccc(F)cc1Cl
4,63.1,Cc1nn(C2CCN(Cc3ccccc3)CC2)c(C)c1CC(=O)NCc1ccc(F)cc1Cl
5,631,Cc1nn(C(C)C)c(C)c1CC(=O)NCc1ccc(F)cc1Cl
6,631,Cc1nn(CC2CCCCC2)c(C)c1CC(=O)NCc1ccc(F)cc1Cl
7,200,CCn1nc(C)c(CC(=O)NCc2ccc(F)cc2Cl)c1C
8,100,Cc1nn(CC(C)(C)C)c(C)c1CC(=O)NCc1ccc(F)cc1Cl
9,251,Cc1nn(Cc2ccccc2N(C)C)c(C)c1CC(=O)NCc1ccc(F)cc1Cl
10,126,Cc1nn(C2CCN(C)CC2)c(C)c1CC(=O)NCc1ccc(F)cc1Cl
11,316,Cc1nn(CC(F)(F)F)c(C)c1CC(=O)NCc1ccc(F)cc1Cl
12,398,Cc1nn(Cc2nc3ccccc3s2)c(C)c1CC(=O)NCc1ccc(F)cc1Cl
13,15.8,Cc1nn(-c2ccc(C(=O)NCc3ccccn3)cc2)c(C)c1CC(=O)NCc1ccc(F)cc1Cl
14,251,Cc1nn(CC(C)C)c(C)c1CC(=O)NCc1ccc(F)cc1Cl
15,501,Cc1nn(C2CCCC2)c(C)c1CC(=O)NCc1ccc(F)cc1Cl
16,1260,Cc1nn(C2CCOCC2)c(C)c1CC(=O)NCc1ccc(F)cc1Cl
17,1260,O=C(Cc1cnn(-c2ccc(F)cc2)c1C(F)(F)F)NCc1ccc(F)cc1Cl
18,631,Cc1ccc(-n2nc(C)c(CC(=O)NCc3ccc(F)cc3Cl)c2C)nn1
19,1260,Cc1nn(CC(=O)O)c(C)c1CC(=O)NCc1ccc(F)cc1Cl
20,501,CCN(CC)C(=O)Cn1nc(C)c(CC(=O)NCc2ccc(F)cc2Cl)c1C
21,316,Cc1nn(Cc2ccncc2)c(C)c1CC(=O)NCc1ccc(F)cc1Cl
22,200,Cc1cc(-n2nc(C)c(CC(=O)NCc3ccc(F)cc3Cl)c2C)nc(C)n1
23,398,C=C(C)CN1C(=O)CC[C@H]1C(=O)NCc1ccc(F)cc1Cl

row,IC50 [nM],SMILES
1,251,Cc1ccc(-n2nc(C)c(CC(=O)NCc3ccc(F)cc3Cl)c2C)cn1
2,398,Cc1nn(Cc2ccccn2)c(C)c1CC(=O)NCc1ccc(F)cc1Cl
3,398,Cc1nn(C(C)(C)C)c(C)c1CC(=O)NCc1ccc(F)cc1Cl
4,251,Cc1nn(CCN2CCOCC2)c(C)c1CC(=O)NCc1ccc(F)cc1Cl
5,398,Cc1ccc(-n2nc(C)c(CC(=O)NCc3ccc(F)cc3Cl)c2C)c(C)n1
6,398,Cc1ccncc1-n1nc(C)c(CC(=O)NCc2ccc(F)cc2Cl)c1C
7,316,Cc1cc(-n2nc(C)c(CC(=O)NCc3ccc(F)cc3Cl)c2C)ccn1
8,200,CCN(CC)CCn1nc(C)c(CC(=O)NCc2ccc(F)cc2Cl)c1C
9,50.1,Cc1nn(CCN2CCCCC2)c(C)c1CC(=O)NCc1ccc(F)cc1Cl
10,126,Cc1nn(CCN2CCCC2)c(C)c1CC(=O)NCc1ccc(F)cc1Cl
11,631,Cc1ccccc1-n1cc(CC(=O)NCc2ccc(F)cc2Cl)cn1
12,251,CCc1ccccc1-n1cc(CC(=O)NCc2ccc(F)cc2Cl)cn1
13,31.6,Cc1nn(-c2ccccc2)c(C)c1CC(=O)NCc1cccc(Cl)c1C
14,251,Cc1nn(-c2ccccc2)c(C)c1CC(=O)NCc1ccc(F)c(F)c1
15,63.1,Cc1nn(-c2ccccc2)c(C)c1CC(=O)NCc1ccc(F)c(F)c1F
16,794,Cc1ccc(C)c(CNC(=O)Cc2c(C)nn(-c3ccccc3)c2C)c1
17,126,Cc1ccc(Cl)cc1CNC(=O)Cc1c(C)nn(-c2ccccc2)c1C
18,39.8,Cc1cccc(Cl)c1CNC(=O)Cc1c(C)nn(-c2ccccc2)c1C
19,39.8,Cc1nn(CCNCC(C)C)c(C)c1CC(=O)NCc1ccc(F)cc1Cl
20,79.4,Cc1ncccc1-n1nc(C)c(CC(=O)NCc2ccc(F)cc2Cl)c1C
21,316,Cc1cncc(-n2nc(C)c(CC(=O)NCc3ccc(F)cc3Cl)c2C)c1
22,100,Cc1nn(CCNCCO)c(C)c1CC(=O)NCc1ccc(F)cc1Cl
